Values quoted from earlier work, collected in the CATMoS acute toxicity set (Mansouri et al. 2021).
Where “and” joins values, the source holds several entries; their conditions need not be identical. Identical values can stand only once.

Test: rat acute oral toxicity
Conditions: in vivo
For `COP(=S)(OC)SCC(=O)CNC(=O)Oc1cccc(C(C)C)c1`, the LD50 is given as 432 mg/kg.
In the case of `CC(=O)c1ccc(O)c(C(N)=O)c1`, the LD50 is listed as 1700 mg/kg.
For `[N-]=[N+]=CC(=O)OC[C@H](N)C(=O)O`, the LD50 is listed as 170 mg/kg.
In the case of `CN(C)C1CSSSC1`, the LD50 is given as 195 mg/kg.
For `CC(Oc1cccc2ccccc12)C(N)=NO` (configuration not stated), the LD50 is given as 90 mg/kg.
For `CCC(N)Cc1c[nH]c2ccccc12` (configuration not stated), the LD50 is given as 49 mg/kg.
For `Nc1nc2c(Cl)cccc2o1`, the LD50 is given as 500 mg/kg.
For `CCC(C)OC(C[n+]1ccccc1)c1ccc(Cl)cc1` (configuration not stated), the LD50 is listed as 250 mg/kg.
In the case of `Nc1ccccc1SCc1ncon1`, the LD50 is listed as 79.4 mg/kg and 63 mg/kg.
In the case of `CC(Cc1ccc2c(c1)OCO2)NCC(O)c1ccc(O)c(O)c1` (configuration not stated), the LD50 is listed as 865 mg/kg.
In the case of `CCCCCCCC(=O)Oc1c(I)cc(C#N)cc1I`, the LD50 is given as 190 mg/kg.
In the case of `C[C@H]1O[C@@H](O[C@H]2[C@@H](O)C[C@H](O[C@H]3[C@@H](O)C[C@H](O[C@H]4CC[C@@]5(C)[C@H](CC[C@@H]6[C@@H]5C[C@@H](O)[C@]5(C)[C@@H](C7=CC(=O)OC7)CC[C@]65O)C4)O[C@@H]3C)O[C@@H]2C)C[C@H](O)[C@@H]1O`, the LD50 is given as 28.3 mg/kg.
In the case of `CC(=O)O[C@@H]1C[C@]2(O)[C@H](CC[C@]3(C)[C@@H](c4ccc(=O)oc4)CC[C@@]32O)[C@@]2(C)CC[C@H](O[C@@H]3O[C@H](CO)[C@@H](O)[C@H](O)[C@H]3O)C=C12`, the LD50 is given as 0.43 mg/kg.
For `CC(C)Cc1cccc2c(CC(=O)O)cccc12`, the LD50 is given as 600 mg/kg.
For `CCN(CCCCOC(=O)c1ccc(OC)c(OC)c1)C(C)Cc1ccc(OC)cc1` (configuration not stated), the LD50 is listed as 1540 mg/kg.
For `CCC(=O)O[C@H]1[C@H](O[C@@H]2[C@@H](C)[C@H](O[C@H]3C[C@@](C)(OC)[C@@H](O)[C@H](C)O3)[C@@H](C)C(=O)O[C@H](CC)[C@@](C)(O)[C@H](O)[C@@H](C)C(=O)[C@H](C)C[C@@]2(C)O)O[C@H](C)C[C@@H]1N(C)C`, the LD50 is given as 1450 mg/kg.
In the case of `CCN(CC)c1cccc(S(=O)(=O)O)c1`, the LD50 is given as 7470 mg/kg.
In the case of `CC1=CCC(=O)O1`, the LD50 is given as 3900 mg/kg.
In the case of `CC1=CC(=O)/C(=C(/C)O)C(=O)O1`, the LD50 is listed as 500 mg/kg.
For `O=C1C2=C(CCCC2)C(=O)N1c1ccc(Cl)cc1`, the LD50 is given as 24000 mg/kg.
In the case of `CN(C)C(=O)CN1C(=O)C2C3C=C(C(O)(c4ccccc4)c4ccccn4)C(C3=C(c3ccccc3)c3ccccn3)C2C1=O` (configuration not stated), the LD50 is given as 5.9 mg/kg.
For `Cc1ncc([N+](=O)[O-])n1CCO`, the LD50 is listed as 3000 mg/kg.
In the case of `Nc1ccc(C(=O)Nc2ccccc2N)cc1`, the LD50 is listed as 95 mg/kg.
In the case of `CC(C)CCCCCCCCCCOCCCN`, the LD50 is given as 300 mg/kg.
For `Cc1cccc(OCC(O)CNC(C)(C)C)c1C` (configuration not stated), the LD50 is listed as 575 mg/kg.
In the case of `CC(CN(C)C)CN1c2ccccc2OCOc2ccc(Cl)cc21` (configuration not stated), the LD50 is listed as 600 mg/kg.
In the case of `COc1cc(C(=O)N2CCCCCCC2)cc(OC)c1OC`, the LD50 is given as 130 mg/kg.
For `CC(C)(SC(=O)N1CCCCC1)c1ccccc1`, the LD50 is listed as 946 mg/kg.
In the case of `CN(Sc1ccccc1)C(=O)Oc1cccc2c1OC(C)(C)C2`, the LD50 is given as 25 mg/kg.
For `CN(C)C#N`, the LD50 is given as 146 mg/kg.
In the case of `CC(=O)Oc1ccc(C)cc1`, the LD50 is given as 1900 mg/kg.
In the case of `CN(Cc1ccccc1)N=O`, the LD50 is given as 18 mg/kg.
In the case of `O=C(Nc1ccc(Nc2ccc(NC(=O)c3ccccc3)c3c2C(=O)c2ccccc2C3=O)c2c1C(=O)c1ccccc1C2=O)c1ccccc1`, the LD50 is given as 19300 mg/kg.
In the case of `Nc1ncnc2nccnc12`, the LD50 is given as 745 mg/kg.
For `CN1CCC2(C)CC(Cc3ccc(O)cc32)C1` (configuration not stated), the LD50 is listed as 320 mg/kg.
For `O=S(=O)(c1ccc(NC([C@H](O)[C@@H](O)[C@H](O)[C@H](O)CO)S(=O)(=O)O)cc1)c1ccc(NC([C@H](O)[C@@H](O)[C@H](O)[C@H](O)CO)S(=O)(=O)O)cc1` (some centres not stated), the LD50 is listed as 3000 mg/kg.
In the case of `CCCc1cc(C(N)=S)ccn1`, the LD50 is listed as 1320 mg/kg.
For `CC/C=C\CC=O`, the LD50 is given as 1560 mg/kg.
In the case of `CNC(=S)NCCSCc1nc[nH]c1C`, the LD50 is given as 1490 mg/kg.
In the case of `O=S1(=O)CCC(Br)C1` (configuration not stated), the LD50 is listed as 215 mg/kg.
In the case of `CN(N=O)c1ccccc1`, the LD50 is given as 225 mg/kg.
For `NC1=NCC(CN2CCN(c3ccccc3)CC2)O1` (configuration not stated), the LD50 is listed as 575 mg/kg.
For `O=C=Nc1ccc(Cc2ccc(N=C=O)cc2N=C=O)cc1`, the LD50 is listed as 20000 mg/kg.
In the case of `O=C(O)CCCN1C(=O)c2cccc3cccc(c23)C1=O`, the LD50 is given as 4000 mg/kg.
For `CC1(C)[C@H](C=C2CCCC2)[C@H]1C(=O)OCc1coc(Cc2ccccc2)c1`, the LD50 is given as 63 mg/kg.
For `O=C(O)c1cc(O)c(O)c(OC(=O)c2cc(O)c(O)c(O)c2)c1`, the LD50 is given as 2260 mg/kg.
For `CNC(=O)Oc1cc(C(C)C)c(OC(=O)NC)cc1C`, the LD50 is given as 60 mg/kg.
In the case of `CN1CCN(CC(=O)N/N=C/c2ccc([N+](=O)[O-])o2)CC1`, the LD50 is given as 990 mg/kg and 960 mg/kg and 833 mg/kg.
In the case of `O=C1C(=NNc2ccccc2S(=O)(=O)O)C(S(=O)(=O)O)=Cc2cc(S(=O)(=O)O)cc(Nc3nc(Cl)nc(Nc4ccccc4)n3)c21`, the LD50 is given as 6730 mg/kg.
In the case of `O=C(C(F)(F)Cl)C(F)(Cl)Cl`, the LD50 is given as 277 mg/kg.
For `COc1nc(C(F)(F)F)nc(=NC(O)=NS(=O)(=O)c2ccccc2C(F)(F)F)[nH]1`, the LD50 is given as 4700 mg/kg.
In the case of `COc1ccc2ccc(=O)oc2c1CC=C(C)C`, the LD50 is given as 2900 mg/kg.
For `CN(C)CCCCCNc1c2ccccc2nc2cccc([N+](=O)[O-])c12`, the LD50 is given as 63.3 mg/kg.
In the case of `CCCCCCC(C)P(=O)(C(C)CCCCCC)C(C)CCCCCC` (configuration not stated), the LD50 is given as 7270 mg/kg.
In the case of `C=CC(=O)OCCCCCCC`, the LD50 is given as 4500 mg/kg.
In the case of `c1cncc(CSSCc2cccnc2)c1`, the LD50 is given as 2150 mg/kg.
For `NC(C(=O)O)c1ccccc1` (configuration not stated), the LD50 is listed as 3030 mg/kg.
For `C/C=C/C=C/C=O`, the LD50 is listed as 300 mg/kg.
In the case of `CCC(=O)OCC(=O)[C@@]1(OC(=O)CC)[C@H](C)C[C@H]2[C@H]3[C@H]([C@@H](O)C[C@@]21C)[C@@]1(C)C=CC(=O)C=C1C[C@H]3Cl`, the LD50 is listed as 3590 mg/kg.
In the case of `COC(=O)C(c1ccccc1Cl)N1CCc2sccc2C1` (configuration not stated), the LD50 is given as 1910 mg/kg.
In the case of `O=C(O)C(F)(F)C(F)(F)F`, the LD50 is given as 1770 mg/kg.
In the case of `Cn1c(=O)c2c(ncn2CCCCN2CCN(c3ccc(F)cc3)CC2)n(C)c1=O`, the LD50 is listed as 353 mg/kg.
For `O=[n+]1c2c(n([O-])c3ccccc31)CCCC2`, the LD50 is listed as 1360 mg/kg.
For `CC(C)Nc1nc(NC(C)C)nc(N(C)C#N)n1`, the LD50 is given as 1700 mg/kg.
For `C=CC=NNc1ccccc1`, the LD50 is given as 700 mg/kg.
For `CCN(CC)C(=S)Sc1nc2ccccc2s1`, the LD50 is listed as 6000 mg/kg.
In the case of `Cc1cccc(Nc2ccccc2C(=O)O)c1C`, the LD50 is given as 740 mg/kg.
